In data set [1] the test system is Rhyzoctonia solani. As to the kind of experiment: Cucumber damping-off control test. Format: in vivo. Conditions: 14 days after sowing. On the procedure:
Cucumber damping-off control test
Rhyzoctonia solani is cultured on barley medium at 28° C for 5 days. A field soil sample is packed into clay pots 9 cm in diameter, which are then sterilized with steam. The chaff inoculum is evenly worked into the cover soil of each pot to the depth of about 3 cm, at the rate of 2g./pot. The pots are kept in an incubation chamber at 28° C for 4 days and, then, transferred to a greenhouse.
As per Experiment 1, the drug is sprayed onto the soil surface at the rate of 30 ml./6 pots/group.
Healthy seeds of cucumber (variety: Yonyo) are sown by burial in the pots immediately after treatment, at the rate of 10 seeds/pot. The pots are then placed in a greenhouse at 32°-28° C.
14 days after sowing, the results are evaluated against the following coefficients of lesion and the degrees of damage are calculated.
Coefficients of lesion (I)
0.5 : Root hairs alone are slightly affected.
1 : Aerial portions near soil surface and roots affected.
2 : Early stage of damping-off.
3 : Affected at germination; growth inhibited.
Degree of damage (%) =(Σ(nI))/3 × N × 100 wherein n means the number of samples corresponding to each coefficient of lesion and N means the total number of plants.

The subject of data set [2] is useful plants. As to the kind of experiment: Effect on useful plants (general statement). Conditions: even when applied in a high concentration. It is filed as in vivo.
Data set [3] deals with Mice. Briefly: Acute toxicity in mice, intravenous injection. Format: in vivo. On the procedure: (§1) The toxicity of the antibiotics can be confirmed, for instance, by administering each of the validamycins C, D, E and F, and validoxylamines A and B, intravenously to mice and measuring the LD50 value, or by measuring the median lethal dose (48 hours) for Oryzias latipes.
In data set [4] the test system is Pellicularia sasakii. As to the kind of experiment: Rice sheath blight control test, remedial. Particulars: inoculation 3 days before application, untreated 34.4cm. It is filed as in vivo. How it is done: (§2) Rice sheath blight control test
(§3) Rice Plants (variety: Kinmaze) are planted in earthen pots 9 cm in diameter, 3 stocks per pot. Seedlings 80 days after potting are tested and 6 pots each of them are grouped.
(§4) Pathogenic fungi Pellicularia sasakii is cultivated on a plate of potato infusion-sugar-agar at 30°C for 48 hours, and its agar disc 10mm in diameter is cut out from a peripheral colony. The disc is inserted into the inside space of the leaf sheath near the soil surface, a disc per stem. The pots are kept in a PVC shelter at the temperature of 32°-25° C and the relative humidity of 100-70%. Inoculation is carried out immediately after the applied drug has been air-dried in the prophylactic test, and 3 days before application in the remedial test.
(§5) 10 days after application of the drug, the length of each stem from ground level to the upper edge of the lesion is directly measured.

Data set [5] can be described thus: pKa' (neutralization, in aqueous solution). Format: physicochemical. The source says: 3. The elementary analysis, the molecular formulas as calculated therefrom, pKa' values, neutralization equivalents (molecular weight) and optical rotation values are given in Table 2.
For data set [6], the system named is bacteria and fungi. As to the kind of experiment: Antimicrobial potency / growth inhibition in vitro. It is filed as cell-based.
Data set [7] relates to men and beasts, as well as to fish. As to the kind of experiment: Harmlessness to men, beasts and fish (general statement). Particulars: in vivo.
Data set [8] has as its system plant diseases. As to the kind of experiment: Control of plant diseases (general statement). It is filed as in vivo. Conditions: for controlling effect against plant diseases, for example, the sheath blight of the rice plant: application in vivo; for effectiveness against sheath blight and stem rot of rice plant, damping off and sclerotial blight of vegetables, flowering plants and lumber seedlings: in vivo.

Data set [9] in a line: Solubilities. It is filed as physicochemical. Particulars: methanol.
Data set [10] concerns Oryzias latipes. As to the kind of experiment: Acute toxicity for Oryzias latipes (median lethal dose, 48 hours). It is filed as in vivo. Conditions: leaving in water solution. On the procedure:
as §1

The subject of data set [11] is Cladosporium fulvum. Briefly: Tomato leaf mold control test. Format: in vivo. Conditions: 50 ppm; 14 days after inoculation; inoculated 3 days before application. On the procedure:
Tomato leaf mold control test
Tomato plants (variety: ponterosa) are planted in 12 cm in diameter pots, one plant per pot. The seedlings 50 days after potting are used, 6 pots/group.
Applied at the rate of 100 ml./6 pots/group as per Experiment 1.
Pathogenic fungi Cladosporium fulvum is cultured on a potato infusion-sucrose plate at 20° C for 14 days, and a suspension of conidia (5×10^5 /ml.) is prepared from the culture.
The plants are spray-inoculated with the suspension 3 days before application of the drug, at the rate of 5 ml. per pot. The pots are kept in an inoculation chamber at 25° C for 24 hours, and, then they are transferred to a greenhouse.
14 days after inoculation, the specific ratio of the average area of lesion in the leaves is measured.

Data set [12] deals with Pellicularia sasakii. As to the kind of experiment: Rice sheath blight control test, preventive (prophylactic). It is filed as in vivo. Particulars: 10 days after application, untreated 34.4cm. How it is done: as §2, §3, §4, §5
For data set [13], the system named is Pellicularia sasakii. Briefly: Abnormal branching of hyphal tips of Pellicularia sasakii (agar dilution bioassay). Format: cell-based. Particulars: for highest dilution factor that causes an abnormal branching at the hyphal tips of Pellicularia sasakii: 1 mg./ml. aqueous solution as stock solution; for dilution unit (maximum dilution which produces abnormal branching): aqueous solution containing 1000 γ/ml., 27° C for 40 hours. On the procedure: Therefore, the bioassay of the antibiotics should be conducted in the following manner.
Pellicularia sasakii is used as the test organism employing plain agar as the assay medium. The test organism is cultivated on a potato (sucrose) agar slant for 2 to 5 days, and the resulting culture is used to inoculate at the center of a 9-cm Petri dish plate of modified Pfeffer's medium, which is then incubated at 27° C for 2 days. By the end of this period, the mycelium will have spread over the entire surface of the plate. The growth on the circumference about 3 to 3.5 cm in radius from the center is cut out with a cork borer and the agar disc thus obtained is used as the inoculum.
A serial dilution series of agar plants containing varying concentrations of the antibiotics is prepared in the same manner as a conventional agar dilution method.
A glass disc of 8 mm in diameter and about 0.2 mm thick, is placed in the center of each of the aforementioned dilution series of agar plates, and the agar disc inoculum is then placed on the glass disc. After incubation at 27° C for 40 hours, the result is evaluated. […] The term dilution unit means the value of maximum dilution which produces such abnormal branching.
Modified Pfeffer's medium, which is employed in this assay, has the following composition.
Before using the medium, the following vitamins are added in the specified amounts. (Weight per ml. of medium)
When a 1 mg./ml. aqueous solution of each of validamycins C, D, E and F and validoxylamines A and B is used as a stock solution, the highest dilution factor that causes an abnormal branching at the hyphal tips of Pellicularia sasakii is as follows.
On the technique in general: In agar dilution, organisms are placed on agar that contains the substance at set levels.

The term LD50 denotes the dose expected to kill half of the subjects tested. A low value points to greater toxicity.

“And” between values parts separate entries of the source, which are not always exact repeats. Equal entries are not always repeated. Where only a bound is given, the exact number is not on record here.

Regarding `O=[N+]([O-])c1c(Cl)c(Cl)c(Cl)c(Cl)c1Cl` [Pentachloronitrobenzene, reference compound], the Degree of damage in data set [1] (5 ppm), in [1] (20 ppm) and in data set [1] (80 ppm) was 100% throughout.
`OCC1CC(NC2C=C(COC3OC(CO)C(O)C(O)C3O)C(O)C(O)C2O)C(O)C(O)C1OC1OC(CO)C(O)C(O)C1O` (centres unmarked) [Validamycin C]: in [2], the “effect on germination, growth, yield and other features of useful plants” value is “do not substantially affect”. This compound had an LD50 in [3] above 2000 mg/kg. Besides, the “Remedial effect (percent of the average length of lesion/stem per control untreated)” value turned out to be 68% in data set [4] (3 ppm); 22% in data set [4] (10 ppm); 12% in [4] (30 ppm); 10% in data set [4] (100 ppm); 7% in data set [4] (300 ppm). Moreover, the “pKa'” value in data set [5] was determined as 6.0 ± 0.2. Moreover, the “antimicrobial potency / growth inhibition of bacteria and fungi in vitro” value in [6] is “no antimicrobial potency”. Moreover, in data set [7], the “harmfulness to men and beasts, as well as to fish” value is given as “substantially harmless”. Moreover, the Degree of damage is reported as 100% in data set [1] (5 ppm), 84% in [1] (20 ppm) and 0% in data set [1] (80 ppm). Also, the “controlling effect against plant diseases, for example, the sheath blight of the rice plant” value in [8] is “excellent controlling effect”. Further, the “effectiveness against sheath blight and stem rot of rice plant, damping off and sclerotial blight of vegetables, flowering plants and lumber seedlings” value in [8] is recorded as “very effective”. The solubility in methanol entry in data set [9] was “more sparingly soluble”. The TLm in data set [10] is on record as above 1000 ppm. Also, the “Specific area of lesion” value in data set [11] turned out to be 18%. The “Preventive effect (percent of the average length of lesion/stem per control untreated)” value in data set [12] (3 ppm) turned out to be 46%; in [12] (10 ppm) it was 34%; in [12] (30 ppm) it was 4%; in data set [12] (100 ppm) it was 1%; in data set [12] (300 ppm) it was 0%. The “highest dilution factor that causes an abnormal branching at the hyphal tips of Pellicularia sasakii” value in data set [13] is given as 100. Also, the “dilution unit (maximum dilution which produces abnormal branching)” value in [13] is listed as 100 dilution unit/ml.
Take `OCC1=C[C@@H](N[C@@H]2C[C@@H](CO[C@@H]3O[C@H](CO)[C@@H](O)[C@H](O)[C@H]3O)[C@H](O)[C@@H](O)[C@H]2O)[C@H](O)[C@H](O)[C@H]1O` [Validamycin D]: in data set [2], the “effect on germination, growth, yield and other features of useful plants” value was “do not substantially affect”. The LD50 in data set [3] was above 2000 mg/kg. Also, the “Remedial effect (percent of the average length of lesion/stem per control untreated)” value in [4] (10 ppm) worked out at 99%; in [4] (30 ppm), 20%; in [4] (100 ppm) it was 11%; in data set [4] (300 ppm) it was 8%. In addition, in data set [5], the “pKa'” value is 6.0 ± 0.2. For the same compound, the “antimicrobial potency / growth inhibition of bacteria and fungi in vitro” value in data set [6] is recorded as “no antimicrobial potency”. Further, the “harmfulness to men and beasts, as well as to fish” value in data set [7] is “substantially harmless”. The Degree of damage in data set [1] (5 ppm) worked out at 100%; in data set [1] (20 ppm) it was 93%; in data set [1] (80 ppm), 0%. Further, the “controlling effect against plant diseases, for example, the sheath blight of the rice plant” value in data set [8] is recorded as “excellent controlling effect”. Further, in data set [8], the “effectiveness against sheath blight and stem rot of rice plant, damping off and sclerotial blight of vegetables, flowering plants and lumber seedlings” value was “very effective”. Also, the solubility in methanol result in [9] was “soluble”. This compound gave a TLm in [10] above 1000 ppm. Also, in data set [11], the “Specific area of lesion” value was 18% and 25%. Also, the “Preventive effect (percent of the average length of lesion/stem per control untreated)” value in [12] (3 ppm) was 28%; in [12] (10 ppm) it was 5%; in [12] (30 ppm), 1%; in [12] (100 ppm) it was 0%; in [12] (300 ppm), 0%. Moreover, the “highest dilution factor that causes an abnormal branching at the hyphal tips of Pellicularia sasakii” value in [13] turned out to be 10. Moreover, the “dilution unit (maximum dilution which produces abnormal branching)” value in [13] turned out to be 10 dilution unit/ml.
In the case of “Methyl arsonic acid ammonium complex salt [MAFA, reference compound]”, the “Remedial effect (percent of the average length of lesion/stem per control untreated)” value in [4] (3 ppm) came to 89%; in data set [4] (10 ppm), 30%; in data set [4] (30 ppm), 15%; in data set [4] (100 ppm), 13%; in [4] (300 ppm) it was 10%. Besides, the “Preventive effect (percent of the average length of lesion/stem per control untreated)” value in data set [12] (3 ppm) is 76%; in data set [12] (10 ppm), 51%; in data set [12] (30 ppm), 0%; in data set [12] (100 ppm), 0%; in data set [12] (300 ppm), 0%.

Values taken from patent publication US4089947A, “Antibiotic compositions containing validamycin compounds” (priority 1976, dated 1978).
